The values below are quoted from earlier work in US20140017301A1, “DRUG-FREE COMPOSITIONS AND METHODS FOR DIMINISHING PERIPHERAL INFLAMMATION AND PAIN” (priority 2011, published 2014).

By log P is commonly meant a log measure of how a compound divides between an organic and an aqueous phase.

For this series the following is noted: excipients of Table 3.
With `O=c1[nH]sc2ccccc12` [1,2-benzothiazol-3-one], the log partition coefficient (log P) is recorded as 1.08.

For the molecule `CC1(C)C(=O)N(CO)C(=O)N1CO` [1,3-Dimethylol-5,5-dimethylhydantoin], the log partition coefficient (log P) is 0.6.

`Cc1cc(O)c(C)c(C)c1O` [2,3,5-trimethylbenzene-1,4-diol]: the “log P” value was 2.12.

Regarding `O=C(O)CNCO` [2-(hydroxymethylamino)acetic adic], the “log P” value is −2.2.

Consider `Cn1sccc1=O` [2-methyl-1,2-thiazol-3-one], for which the “log P” value is −0.06.

Consider `OCC(O)CS` (stereo not shown) [3-sulfanylpropane-1,2-diol], for which the “log P” value is recorded as −0.57.

In the case of `CCCCCCOc1cc(C)c(O)c(C)c1C` [4-hexoxy-2,3,6-trimethylphenol, HTHQ, 4-hexoxy-2,3,6-trimethylphenol], the “log P” value is reported as 4.81.

Consider `O=[N+]([O-])C1(Br)COCOC1` [5-Bromo-5-nitro-1,3-dioxane, bronidox, 5-Bromo-5-nitro-1,3-dioxane], for which the lipophilicity (log P) was 0.44.

Turning to `Cc1ccc(C(C)C)c(O)c1` [6-isopropyl-m-cresol; thymol, 6-isopropyl-m-cresol], the log partition coefficient (log P) is on record as 3.21.

For `CC(=O)OC1CC(C)OC(C)O1` (stereo not shown) [(2,6-dimethyl-1,3-dioxan-4-yl) acetate], the log partition coefficient (log P) was 0.87.

With `OCc1ccccc1` [Benzyl alcohol], the log partition coefficient (log P) was 1.23.

In the case of `CCCCOC(=O)c1ccc(O)cc1` [Butyl 4-hydroxybenzoate; butylparabene, Butyl 4-hydroxybenzoate], the log partition coefficient (log P) is on record as 3.07.

For `COc1ccc(O)c(C(C)(C)C)c1` [Butylated hydroxyanisole, BHA, Butylated hydroxyanisole], the lipophilicity (log P) is 3.13.

For `CC(=O)C1C(=O)C=C(C)OC1=O` (stereo not shown) [Dehydroacetic acid], the “log P” value is given as −0.05.

For the molecule `O=C1C(N(CO)C(=O)NCO)N(CO)C(=O)N1CO` (stereo not shown) [Diazodinyl Urea (Germall II), Diazodinyl Urea], the “log P” value is reported as −3.2.

Take `CCOC(=O)c1ccc(O)cc1` [Ethyl 4-hydroxybenzoate; ethylparabene, Ethyl 4-hydroxybenzoate]: the lipophilicity (log P) is 2.16.

Consider `COC(=O)c1ccc(O)cc1` [Methyl 4-hydroxybenzoate; methylparabene, Methyl 4-hydroxybenzoate], for which the log partition coefficient (log P) was 1.72.

As to `OCCOc1ccccc1` [Phenoxyethanol], the “log P” value is 1.26.

For the molecule `OCCc1ccccc1` [Phenylethanol], the lipophilicity (log P) is 1.61.

As to `CCCOC(=O)c1ccc(O)cc1` [Propyl 4-hydroxybenzoate; propylparabene, Propyl 4-hydroxybenzoate], the “log P” value was 2.63.

Take `C/C=C/C=C/C(=O)O` [Sorbic acid]: the lipophilicity (log P) is given as 1.38.

On to `NC(N)=S` [Thiourea], for which the log partition coefficient (log P) is −0.96.

As to Benzalkonium, the lipophilicity (log P) is recorded as 3.67.

Consider Propanediol, for which the log partition coefficient (log P) is −0.71.

On to Tocopherol, for which the log partition coefficient (log P) is 9.76.
